Measurements as given in the NIST ThermoML archive (doi:10.1016/j.fluid.2011.04.001).
± gives the expanded uncertainty stated by the source.

Key:
[1] = refractive index (Na D-line) (dimensionless); settings: 298.15 K; 101.33 kPa; Liquid; Standard Abbe refractometry
[2] = 298.15 K; 101.33 kPa; Liquid; Vibrating tube method
[3] = xn = mol fraction of the nth substance listed; settings: 298.15 K, 101 kPa, Liquid, Vibrating tube method

Question: Which results are given for CCOS(=O)(=O)[O-].CCn1cc[n+](C)c1 [1-ethyl-3-methylimidazolium ethyl sulfate]?
Answer: refractive index [1]: 1.50591 ± 0.0004; mass density [2]: 1237.23 ± 0.43 kg/m3

Question: With CCOS(=O)(=O)[O-].CCn1cc[n+](C)c1 [1-ethyl-3-methylimidazolium ethyl sulfate] + CCCCCC as the compound, how does the mass density ([3]; x2 = 0.015) read?
Answer: The mass density was 1234.45 ± 1.5 kg/m3.

Question: For CCOS(=O)(=O)[O-].CCn1cc[n+](C)c1 [1-ethyl-3-methylimidazolium ethyl sulfate] + Cc1ccc(C)cc1, which mass density ([3]; x2 = 0.123) is on record?
Answer: Its mass density is 1210.97 ± 1.5 kg/m3.

Question: With CCOS(=O)(=O)[O-].CCn1cc[n+](C)c1 [1-ethyl-3-methylimidazolium ethyl sulfate] + Cc1cccc(C)c1 as the compound, how does the mass density ([3]; x2 = 0.119) read?
Answer: Its mass density is 1212.69 ± 1.5 kg/m3.

Question: For CCOS(=O)(=O)[O-].CCn1cc[n+](C)c1 [1-ethyl-3-methylimidazolium ethyl sulfate] + Cc1ccccc1C, which mass density ([3]; x2 = 0.142) is on record?
Answer: Its mass density is 1207.74 ± 1.5 kg/m3.
